Earlier results in patent publication US20230001221A1, “Methods of Treating Cancer with Alternating Electric Fields, Checkpoint Inhibitors, and Combination Chemotherapy” (Novocure GmbH, priority 2021, published 2023).

Key:
[1] = tested on: tumor growth; conditions: in-vivo, TTFields added to the chemotherapy
[2] = tested on: human and murine pancreatic cancer cell lines; conditions: in-vitro, TTFields combined with the chemotherapy

## Nc1ccn([C@@H]2O[C@H](CO)[C@@H](O)C2(F)F)c(=O)n1 [gemcitabine]
[1]
  inhibition of tumor growth: significant inhibition of tumor growth
[2]
  cytotoxicity when combined with TTFields: enhanced cytotoxicity

## CCc1c2c(nc3ccc(OC(=O)N4CCC(N5CCCCC5)CC4)cc13)-c1cc3c(c(=O)n1C2)COC(=O)[C@]3(O)CC [irinotecan]
[2]
  cytotoxicity when combined with TTFields: enhanced cytotoxicity

## O=c1[nH]cc(F)c(=O)[nH]1 [5-FU, fluorouracil]
[1]
  inhibition of tumor growth: significant inhibition of tumor growth
